This note sets out measurements from ChEMBL document CHEMBL4261604, “Design, synthesis and biological evaluation of novel carbamodithioates as anti-proliferative agents against human cancer cells” (Eur J Med Chem, 2018).

Structures are written as SMILES. Calls of active or inactive are those of the source. No cut-off for these calls is given here.

One may read the IC50 as the concentration needed to halve the response being measured. Usually inhibition stands for the share of the control response that was lost under treatment.

Data set [1] deals with SMMC-7721. In words: Induction of apoptosis in human SMMC7721 cells assessed as viable cells at 4 uM after 72 hrs by Alexa Fluor 488 Annexin/propidium iodide staining-based flow cytometric analysis (reference value: 91.92%). The data set is classed as functional. The settings on record: SMMC-7721, 72 h, read-out: Activity. Background: A flow cytometer gives signals particle by particle.

Another data set deals with A549. Briefly: cells. The settings on record: Homo sapiens, A549, 72 h.
Data set [2] has as its system SMMC-7721. In words: Antiproliferative activity against human SMMC7721 cells after 72 hrs by CCK8 assay. In kind it is functional, cell-based. The settings on record: SMMC-7721, 72 h. (In general: Tetrazolium assays rely on reduction of a dye to a coloured formazan, in cell work by metabolically active cells.)
Data set [3] deals with SMMC-7721. Briefly: Induction of apoptosis in human SMMC7721 cells assessed as late apoptotic cells at 8 uM after 72 hrs by Alexa Fluor 488 Annexin/propidium iodide staining-based flow cytometric analysis (reference value: 0.62%). In kind it is functional.
Data set [4] relates to SMMC-7721. Briefly: Induction of apoptosis in human SMMC7721 cells assessed as necrotic cells at 8 uM after 72 hrs by Alexa Fluor 488 Annexin/propidium iodide staining-based flow cytometric analysis (reference value: […]). The data set is classed as functional.
Another data set relates to HeLa. In words: Antiproliferative activity against human HeLa cells after 72 hrs by CCK8 assay. In kind it is functional, cell-based.
The subject of data set [5] is A-375. In words: Antiproliferative activity against human A375 cells assessed as inhibition of cell proliferation at 16 uM after 72 hrs by CCK8 assay. In kind it is functional. Conditions: A-375, 72 h.
Data set [6] deals with SMMC-7721. Briefly: Induction of apoptosis in human SMMC7721 cells assessed as late apoptotic cells at 4 uM after 72 hrs by Alexa Fluor 488 Annexin/propidium iodide staining-based flow cytometric analysis (reference value: 0.62%). The data set is classed as functional.
Data set [7] has as its system SMMC-7721. Briefly: Antiproliferative activity against human SMMC7721 cells assessed as inhibition of cell proliferation at 32 uM after 72 hrs by CCK8 assay. In kind it is functional. Conditions: SMMC-7721, 72 h.
Data set [8] relates to SMMC-7721. Briefly: Cell cycle arrest in human SMMC7721 cells assessed as accumulation at G0/G1 phase at 8 uM after 72 hrs by RNase/propidium iodide staining-based flow cytometric analysis (reference value: 67.26%). In kind it is functional.
Data set [9] deals with SMMC-7721. Briefly: Cell cycle arrest in human SMMC7721 cells assessed as accumulation at G2/M phase at 8 uM after 72 hrs by RNase/propidium iodide staining-based flow cytometric analysis (reference value: 24.78%). The data set is classed as functional.
The subject of data set [10] is SMMC-7721. In words: Cell cycle arrest in human SMMC7721 cells assessed as accumulation at G2/M phase at 4 uM after 72 hrs by RNase/propidium iodide staining-based flow cytometric analysis (reference value: 24.78%). The data set is classed as functional.
The subject of data set [11] is SMMC-7721. In words: Cell cycle arrest in human SMMC7721 cells assessed as accumulation at G0/G1 phase at 4 uM after 72 hrs by RNase/propidium iodide staining-based flow cytometric analysis (reference value: 67.26%). The data set is classed as functional.
In data set [12] the test system is SMMC-7721. Briefly: Induction of apoptosis in human SMMC7721 cells assessed as early apoptotic cells at 4 uM after 72 hrs by Alexa Fluor 488 Annexin/propidium iodide staining-based flow cytometric analysis (reference value: 0.70%). The data set is classed as functional.
For data set [13], the system named is SMMC-7721. Briefly: Cell cycle arrest in human SMMC7721 cells assessed as accumulation at S phase at 4 uM after 72 hrs by RNase/propidium iodide staining-based flow cytometric analysis (reference value: 7.96%). The data set is classed as functional.
The test system of data set [14] is SMMC-7721. Briefly: Induction of apoptosis in human SMMC7721 cells assessed as viable cells at 8 uM after 72 hrs by Alexa Fluor 488 Annexin/propidium iodide staining-based flow cytometric analysis (reference value: 91.92%). The data set is classed as functional. The settings on record: SMMC-7721, 72 h, read-out: Activity.
The subject of data set [15] is SMMC-7721. Briefly: Antiproliferative activity against human SMMC7721 cells assessed as inhibition of cell proliferation at 16 uM after 72 hrs by CCK8 assay. In kind it is functional. Conditions: SMMC-7721, 72 h.
Data set [16] concerns A-375. In words: Antiproliferative activity against human A375 cells assessed as inhibition of cell proliferation at 32 uM after 72 hrs by CCK8 assay. Conditions: A-375, 72 h. The data set is classed as functional.
A further data set has as its system HCT-116. Briefly: cells. The settings on record: Homo sapiens, HCT-116, 72 h.
Data set [17] has as its system SMMC-7721. Briefly: Induction of apoptosis in human SMMC7721 cells assessed as necrotic cells at 4 uM after 72 hrs by Alexa Fluor 488 Annexin/propidium iodide staining-based flow cytometric analysis (reference value: […]). In kind it is functional.
Data set [18] relates to SMMC-7721. In words: Induction of apoptosis in human SMMC7721 cells assessed as early apoptotic cells at 8 uM after 72 hrs by Alexa Fluor 488 Annexin/propidium iodide staining-based flow cytometric analysis (reference value: 0.70%). The data set is classed as functional.
Data set [19] relates to SMMC-7721. In words: Inhibition of colony formation in human SMMC7721 cells at 2 to 8 uM after 7 days by crystal violet staining-based assay. The data set is classed as functional, cell-based.
The test system of data set [20] is A-375. Briefly: Antiproliferative activity against human A375 cells after 72 hrs by CCK8 assay. In kind it is functional, cell-based. Conditions: A-375, 72 h.
The test system of data set [21] is SMMC-7721. Briefly: Cell cycle arrest in human SMMC7721 cells assessed as accumulation at S phase at 8 uM after 72 hrs by RNase/propidium iodide staining-based flow cytometric analysis (reference value: 7.96%). The data set is classed as functional.
A short description of data set [22]: Drug degradation in methanol after 10 hrs at 50 degC by HPLC analysis. In kind it is physicochemical. Conditions: read-out: Drug degradation.
A short description of data set [23]: Stability of the compound in acetonitrile up to 12 hrs by HPLC analysis. In kind it is physicochemical.
A short description of data set [24]: Stability of the compound in methanol:water (1:1) up to 12 hrs by HPLC analysis. In kind it is physicochemical.

Description for A549: Antiproliferative activity against human A549 cells after 72 hrs by CCK8 assay
Description for HCT-116: Antiproliferative activity against human HCT116 cells after 72 hrs by CCK8 assay

Consider `C[S+]([O-])CCCCN=C=S` (stereo unspecified) [SULFORAPHANE], for which the viability at 4 µM in the data set on SMMC-7721 [1] was determined as 88.4%. The IC50 in the data set on A549 was 11.9 µM; with SMMC-7721 [2], 7.87 µM; in the data set on HeLa, 66.1 µM; with HCT-116, 36.7 µM; in the data set on A-375 [20], 24.5 µM. For the same molecule, the Activity amounted to 9.09% with SMMC-7721 [3]; 9.59% with SMMC-7721 [4]; 2.82% with SMMC-7721 [6]; 66.19% in the data set with SMMC-7721 [8]; 28.35% in the data set with SMMC-7721 [9]; 26.8% in the data set on SMMC-7721 [10]. Also, the Activity in the data set with SMMC-7721 [11] came to 68.06%; in the data set with SMMC-7721 [12], 4.66%; with SMMC-7721 [13] it was 5.41%; in the data set on SMMC-7721 [17] it was 4.14%; with SMMC-7721 [18] it was 14.43%; in the data set on SMMC-7721 [21] it was 5.46%. Moreover, the inhibition at 16 µM in the data set with A-375 [5] amounted to 54%; in the data set on SMMC-7721 [15], 80.5%. Besides, the results for the inhibition at 32 µM in the data set on SMMC-7721 [7] and in the data set with A-375 [16] were 88.3% and 77.3%, respectively. Besides, the viability at 8 µM in the data set on SMMC-7721 [14] is 66.9%. Moreover, the inhibition entry in the data set on SMMC-7721 [19] was “Active”. Further, the degraded at 10 h in data set [22] worked out at 60%.
On to `CC(=O)NCCSC(=S)NCCCC[S+](C)[O-]` (stereo unspecified), for which the Stability entry in data set [23] and in [24] was “Stable” throughout.
On to `COc1ccc(SC(=S)NCCCC[S+](C)[O-])cc1` (stereo unspecified), for which the Stability result in data set [23] and in data set [24] was “Unstable” throughout. Besides, the degraded at 10 h in [22] was less than 6%.
`C[S+]([O-])/C=C/CCN=C=S` (stereo unspecified): the degraded at 10 h in data set [22] is 60%.
Consider `COc1ccc(SC(=S)NCC/C=C/[S+](C)[O-])cc1` (stereo unspecified), for which the Stability result in data set [23] and in data set [24] was “Unstable” throughout. Moreover, the degraded at 10 h in data set [22] came out at 25%.
For `CC(=O)NCCSC(=S)NCC/C=C/[S+](C)[O-]` (stereo unspecified), the Stability entry in data set [23] and in data set [24] was “Stable” each time.
